{"source": "ChEMBL document CHEMBL3046689", "about": "“Volatile aldehydes are promising broad-spectrum postharvest insecticides” (J Agric Food Chem, 2000)", "key": {"Myzus persicae [1]": {"tested_on": "Myzus persicae", "assay": "Insecticidal activity against Myzus persicae (green peach aphid) applied through two-tier reduced pressure fumigation at 30 mmHg for 0.5 hr and then 760 mmHg for 1.5 hr at 23 +/- 1 degC", "format": "functional"}, "Myzus persicae [2]": {"tested_on": "Myzus persicae", "assay": "Insecticidal activity against Myzus persicae (green peach aphid) placed under third leaf of naked Iceburg lettuce heads and after compound application for 2 hr through two-tier reduced pressure fumigation at 30 mmHg for 0.5 hr and then 760 mmHg for 1.5 hr at 23 +/- 1 degC measured after 24 hr", "format": "functional"}, "Persea americana [3]": {"tested_on": "Persea americana", "assay": "Phytotoxicity in Persea americana (avocado) assessed as induction of visual damage after compound application for 1 hr through two-tier reduced pressure fumigation at 30 mmHg for 0.5 hr and then 760 mmHg for 1.5 hr at 23 +/- 1 degC", "format": "organism-based", "conditions": "in vivo"}, "[4]": {"tested_on": "Brassica oleracea var. capitata", "assay": "Phytotoxicity in Brassica oleracea var. capitata (cabbage) assessed as induction of visual damage after compound application for 1 hr through two-tier reduced pressure fumigation at 30 mmHg for 0.5 hr and then 760 mmHg for 1.5 hr at 23 +/- 1 degC", "format": "organism-based", "conditions": "in vivo"}, "Lactuca sativa [5]": {"tested_on": "Lactuca sativa", "assay": "Phytotoxicity in wrapped Lactuca sativa (lettuce) assessed as induction of visual damage after compound application for 1 hr through two-tier reduced pressure fumigation at 30 mmHg for 0.5 hr and then 760 mmHg for 1.5 hr at 23 +/- 1 degC", "format": "organism-based", "conditions": "in vivo"}, "[6]": {"tested_on": "Brassica oleracea var. italica", "assay": "Phytotoxicity in Brassica oleracea var. italica assessed as induction of visual damage after compound application for 1 hr through two-tier reduced pressure fumigation at 30 mmHg for 0.5 hr and then 760 mmHg for 1.5 hr at 23 +/- 1 degC", "format": "organism-based", "conditions": "in vivo"}, "Phaseolus vulgaris [7]": {"tested_on": "Phaseolus vulgaris", "assay": "PhytoToxicity in Phaseolus vulgaris (beans) assessed as induction of olfactory damage after compound application for 1 hr through two-tier reduced pressure fumigation at 30 mmHg for 0.5 hr and then 760 mmHg for 1.5 hr at 23 +/- 1 degC", "format": "organism-based", "conditions": "in vivo"}, "Oryza sativa [8]": {"tested_on": "Oryza sativa", "assay": "Phytotoxicity in Oryza sativa (rice) assessed as induction of olfactory damage after compound application for 1 hr through two-tier reduced pressure fumigation at 30 mmHg for 0.5 hr and then 760 mmHg for 1.5 hr at 23 +/- 1 degC", "format": "organism-based", "conditions": "in vivo"}, "Vitis vinifera [9]": {"tested_on": "Vitis vinifera", "assay": "Phytotoxicity in Vitis vinifera assessed as induction of olfactory damage after compound application for 1 hr through two-tier reduced pressure fumigation at 30 mmHg for 0.5 hr and then 760 mmHg for 1.5 hr at 23 +/- 1 degC", "format": "organism-based", "conditions": "in vivo"}, "Malus domestica [10]": {"tested_on": "Malus domestica", "assay": "Phytotoxicity in Malus x domestica (apple) assessed as induction of olfactory damage after compound application for 1 hr through two-tier reduced pressure fumigation at 30 mmHg for 0.5 hr and then 760 mmHg for 1.5 hr at 23 +/- 1 degC", "format": "organism-based", "conditions": "in vivo"}, "Persea americana [11]": {"tested_on": "Persea americana", "assay": "Phytotoxicity in Persea americana (avocado) assessed as induction of olfactory damage after compound application for 1 hr through two-tier reduced pressure fumigation at 30 mmHg for 0.5 hr and then 760 mmHg for 1.5 hr at 23 +/- 1 degC", "format": "organism-based", "conditions": "in vivo"}, "Tetranychus urticae": {"tested_on": "Tetranychus urticae", "assay": "Insecticidal activity against Tetranychus urticae (two-spotted spider mite)", "format": "functional, organism-based"}, "Brevicoryne brassicae": {"tested_on": "Brevicoryne brassicae", "assay": "Insecticidal activity against Brevicoryne brassicae (cabbage aphids)", "format": "functional, organism-based"}, "[12]": {"tested_on": "Frankliniella occidentalis", "assay": "Insecticidal activity against Frankliniella occidentalis (western flower thrips)", "format": "functional, organism-based"}, "Bemisia": {"tested_on": "Bemisia", "assay": "Insecticidal activity against Bemisia sp.", "format": "functional, organism-based"}, "Pseudococcus affinis": {"tested_on": "Pseudococcus affinis", "assay": "Insecticidal activity against Pseudococcus affinis", "format": "functional, organism-based"}, "Pseudococcus viburni": {"tested_on": "Pseudococcus viburni", "assay": "Insecticidal activity against Pseudococcus viburni", "format": "functional, organism-based"}, "Phaseolus vulgaris [13]": {"tested_on": "Phaseolus vulgaris", "assay": "PhytoToxicity in Phaseolus vulgaris (beans) assessed as induction of visual damage after compound application for 1 hr through two-tier reduced pressure fumigation at 30 mmHg for 0.5 hr and then 760 mmHg for 1.5 hr at 23 +/- 1 degC", "format": "organism-based", "conditions": "in vivo, other"}, "Oryza sativa [14]": {"tested_on": "Oryza sativa", "assay": "Phytotoxicity in Oryza sativa (rice) assessed as induction of visual damage after compound application for 1 hr through two-tier reduced pressure fumigation at 30 mmHg for 0.5 hr and then 760 mmHg for 1.5 hr at 23 +/- 1 degC", "format": "organism-based", "conditions": "in vivo"}, "Vitis vinifera [15]": {"tested_on": "Vitis vinifera", "assay": "Phytotoxicity in Vitis vinifera assessed as induction of visual damage after compound application for 1 hr through two-tier reduced pressure fumigation at 30 mmHg for 0.5 hr and then 760 mmHg for 1.5 hr at 23 +/- 1 degC", "format": "organism-based", "conditions": "in vivo"}, "Lactuca sativa [16]": {"tested_on": "Lactuca sativa", "assay": "Phytotoxicity in naked Lactuca sativa (lettuce) assessed as residual aldehyde odor after compound application through two-tier reduced pressure fumigation at 30 mmHg for 0.5 hr and then 760 mmHg for 1.5 hr at 23 +/- 1 degC after 2 hr", "format": "organism-based", "conditions": "in vivo"}, "Malus domestica [17]": {"tested_on": "Malus domestica", "assay": "Phytotoxicity in Malus x domestica (apple) assessed as induction of visual damage after compound application for 1 hr through two-tier reduced pressure fumigation at 30 mmHg for 0.5 hr and then 760 mmHg for 1.5 hr at 23 +/- 1 degC", "format": "organism-based", "conditions": "in vivo"}, "Citrus limon [18]": {"tested_on": "Citrus limon", "assay": "Phytotoxicity in Citrus limon (lemon) assessed as induction of visual damage after compound application for 1 hr through two-tier reduced pressure fumigation at 30 mmHg for 0.5 hr and then 760 mmHg for 1.5 hr at 23 +/- 1 degC", "format": "organism-based", "conditions": "citrus x limon, in vivo"}, "Citrus sinensis": {"tested_on": "Citrus sinensis", "assay": "Phytotoxicity in Citrus sinensis (orange) assessed as induction of visual damage after compound application for 1 hr through two-tier reduced pressure fumigation at 30 mmHg for 0.5 hr and then 760 mmHg for 1.5 hr at 23 +/- 1 degC", "format": "organism-based", "conditions": "in vivo"}, "Citrus limon [19]": {"tested_on": "Citrus limon", "assay": "Phytotoxicity in Citrus limon (lemon) assessed as induction of olfactory damage after compound application for 1 hr through two-tier reduced pressure fumigation at 30 mmHg for 0.5 hr and then 760 mmHg for 1.5 hr at 23 +/- 1 degC", "format": "organism-based", "conditions": "citrus x limon, in vivo"}, "[20]": {"tested_on": "Brassica oleracea var. capitata", "assay": "Phytotoxicity in Brassica oleracea var. capitata (cabbage) assessed as induction of olfactory damage after compound application for 1 hr through two-tier reduced pressure fumigation at 30 mmHg for 0.5 hr and then 760 mmHg for 1.5 hr at 23 +/- 1 degC", "format": "organism-based", "conditions": "in vivo"}, "[21]": {"tested_on": "Brassica oleracea var. italica", "assay": "Phytotoxicity in Brassica oleracea var. italica assessed as induction of olfactory damage after compound application for 1 hr through two-tier reduced pressure fumigation at 30 mmHg for 0.5 hr and then 760 mmHg for 1.5 hr at 23 +/- 1 degC", "format": "organism-based", "conditions": "in vivo"}, "Lactuca sativa [22]": {"tested_on": "Lactuca sativa", "assay": "Phytotoxicity in naked Lactuca sativa (lettuce) assessed as change in visual quality after compound application for 1 hr through two-tier reduced pressure fumigation at 30 mmHg for 0.5 hr and then 760 mmHg for 1.5 hr at 23 +/- 1 degC", "format": "organism-based", "conditions": "in vivo"}, "Lactuca sativa [23]": {"tested_on": "Lactuca sativa", "assay": "Phytotoxicity in naked Lactuca sativa (lettuce) after compound application for 1 hr through two-tier reduced pressure fumigation at 30 mmHg for 0.5 hr and then 760 mmHg for 1.5 hr at 23 +/- 1 degC", "format": "organism-based", "conditions": "in vivo"}, "Myzus persicae [24]": {"tested_on": "Myzus persicae", "assay": "Insecticidal activity against Myzus persicae (green peach aphid) infested naked lettuce applied for 1 hr through two-tier reduced pressure fumigation at 30 mmHg for 0.5 hr and then 760 mmHg for 1.5 hr at 23 +/- 1 degC measured 24 hr", "format": "functional, organism-based"}}, "note": "Active and inactive are the calls of the source. No cut-off for these calls is given here.", "data": [{"smiles": "CCC=O", "note": "[PROPIONALDEHYDE]", "values": [{"measurement": "CTP", "setting": "Myzus persicae [1]", "value": 4.2, "unit": "mg/L.hr"}, {"measurement": "CTP", "setting": "Myzus persicae [2]", "value": 304, "unit": "mg/L.hr"}, {"measurement": "LD90", "setting": "Myzus persicae [2]", "value": 124.5, "unit": "mg/L"}, {"measurement": "Activity", "setting": "Persea americana [3]", "value": "Non-toxic"}, {"measurement": "Activity", "setting": "[4]", "value": "Non-toxic"}, {"measurement": "Activity", "setting": "Lactuca sativa [5]", "value": "Non-toxic"}, {"measurement": "Activity", "setting": "[6]", "value": "Non-toxic"}, {"measurement": "Activity", "setting": "Phaseolus vulgaris [7]", "value": "Non-toxic"}, {"measurement": "Activity", "setting": "Oryza sativa [8]", "value": "Non-toxic"}, {"measurement": "Activity", "setting": "Vitis vinifera [9]", "value": "Non-toxic"}, {"measurement": "Activity", "setting": "Malus domestica [10]", "value": "Non-toxic"}, {"measurement": "Activity", "setting": "Persea americana [11]", "value": "Non-toxic"}, {"measurement": "Activity", "setting": "Tetranychus urticae", "value": "inactive"}, {"measurement": "Activity", "setting": "Brevicoryne brassicae", "value": "inactive"}, {"measurement": "Activity", "setting": "[12]", "value": "Active"}, {"measurement": "Activity", "setting": "Bemisia", "value": "Active"}, {"measurement": "Activity", "setting": "Pseudococcus affinis", "value": "Active"}, {"measurement": "Activity", "setting": "Pseudococcus viburni", "value": "Active"}, {"measurement": "Activity", "setting": "Phaseolus vulgaris [13]", "value": "Non-toxic"}, {"measurement": "Activity", "setting": "Oryza sativa [14]", "value": "Non-toxic"}, {"measurement": "Activity", "setting": "Vitis vinifera [15]", "value": "Non-toxic"}, {"measurement": "Activity", "setting": "Lactuca sativa [16]", "value": "Toxic"}, {"measurement": "Activity", "setting": "Malus domestica [17]", "value": "Non-toxic"}, {"measurement": "Activity", "setting": "Citrus limon [18]", "value": "Non-toxic"}, {"measurement": "Activity", "setting": "Citrus sinensis", "value": "Non-toxic"}, {"measurement": "Activity", "setting": "Citrus limon [19]", "value": "Non-toxic"}, {"measurement": "Activity", "setting": "[20]", "value": "Toxic"}, {"measurement": "Activity", "setting": "[21]", "value": "Toxic"}, {"measurement": "Activity", "setting": "Lactuca sativa [22]", "value": "Toxic"}, {"measurement": "Activity", "setting": "Lactuca sativa [23]", "value": "Toxic"}, {"measurement": "Activity", "setting": "Myzus persicae [24]", "value": "Active"}]}]}
